The target in assay [1] is T1, SIK1 kinase (aa1-303, Thermo Fisher) (Homo sapiens, UniProt P57059).
T1 construct: SIK1 kinase (aa1-303, Thermo Fisher); purchased Thermo Fisher
The assay can be described thus: Biochemical activities determination for SIK1 protein (TR-FRET). The following applies: 110 uM ATP, 0.5 μM STK1 substrate. In outline: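 TR-FRET kinase assay with SIK1 (aa1-303), 110 uM ATP, 0.5 μM STK1 substrate and 0-10 μM compound in Tris pH 7.5 with MgCl2, EGTA, DTT, Triton X-100. Enzyme preincubated with compound 60 min, reaction 180 min at room temperature; 665/620 nm ratio after overnight detection; IC50 from four-parameter logistic fit.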
(In general: In TR-FRET formats the signal depends on donor and acceptor labels being close together.)

Assay [2] deals with T2, SIK3 kinase (aa59-365, Thermo Fisher) (Homo sapiens, UniProt Q9Y2K2).
T2 construct: SIK3 kinase (aa59-365, Thermo Fisher); purchased Thermo Fisher
Nature of the assay: Biochemical activities determination for SIK3 protein (TR-FRET). The following applies: 125 uM ATP, 0.5 μM STK1 substrate. In outline:
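SIK3 (aa59-365) was preincubated with compound (0-10 μM) for 60 min at room temperature in Tris buffer pH 7.5. The reaction was then started with 125 uM ATP and 0.5 μM STK1 substrate and run 180 min at room temperature. Phospho-substrate was detected by HTRF (665/620 nm ratio), and IC50 came from a four-parameter logistic fit.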

Assay [3] addresses T3, SIK2 kinase (full length, Thermo Fisher) (Homo sapiens, UniProt Q9H0K1).
T3 construct: SIK2 kinase (full length, Thermo Fisher); purchased Thermo Fisher
The assay can be described thus: Biochemical activities determination for SIK2 protein (TR-FRET). The following applies: 80 uM ATP, 0.5 μM substrate. The method in brief: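 Full-length SIK2 preincubated 60 min with 0–10 μM compound, then reacted 180 min at room temperature with 80 uM ATP and 0.5 μM biotinylated substrate (pH 7.5 Tris/MgCl2 buffer). Phosphorylation detected by TR-FRET (665/620 nm ratio, cryptate antibody/streptavidin-XL665) after overnight incubation; IC50 from four-parameter logistic fit.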

These results are taken from patent US20260085053A1, “BENZOFURAN DERIVATIVES AS SIK INHIBITORS AND THE USE THEREOF” (BEONE MEDICINES I GMBH, priority 2023, published 2026).

T2 sequence (Q9Y2K2 59-365): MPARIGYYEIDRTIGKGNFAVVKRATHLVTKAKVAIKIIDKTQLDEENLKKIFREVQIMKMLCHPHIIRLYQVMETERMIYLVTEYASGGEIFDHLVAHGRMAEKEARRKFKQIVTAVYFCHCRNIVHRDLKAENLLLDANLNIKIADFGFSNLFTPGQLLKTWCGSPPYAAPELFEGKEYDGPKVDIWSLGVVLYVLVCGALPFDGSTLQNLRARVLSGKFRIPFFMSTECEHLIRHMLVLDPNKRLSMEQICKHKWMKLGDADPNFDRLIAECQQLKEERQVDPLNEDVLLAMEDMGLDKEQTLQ
T3 sequence (Q9H0K1 whole entry): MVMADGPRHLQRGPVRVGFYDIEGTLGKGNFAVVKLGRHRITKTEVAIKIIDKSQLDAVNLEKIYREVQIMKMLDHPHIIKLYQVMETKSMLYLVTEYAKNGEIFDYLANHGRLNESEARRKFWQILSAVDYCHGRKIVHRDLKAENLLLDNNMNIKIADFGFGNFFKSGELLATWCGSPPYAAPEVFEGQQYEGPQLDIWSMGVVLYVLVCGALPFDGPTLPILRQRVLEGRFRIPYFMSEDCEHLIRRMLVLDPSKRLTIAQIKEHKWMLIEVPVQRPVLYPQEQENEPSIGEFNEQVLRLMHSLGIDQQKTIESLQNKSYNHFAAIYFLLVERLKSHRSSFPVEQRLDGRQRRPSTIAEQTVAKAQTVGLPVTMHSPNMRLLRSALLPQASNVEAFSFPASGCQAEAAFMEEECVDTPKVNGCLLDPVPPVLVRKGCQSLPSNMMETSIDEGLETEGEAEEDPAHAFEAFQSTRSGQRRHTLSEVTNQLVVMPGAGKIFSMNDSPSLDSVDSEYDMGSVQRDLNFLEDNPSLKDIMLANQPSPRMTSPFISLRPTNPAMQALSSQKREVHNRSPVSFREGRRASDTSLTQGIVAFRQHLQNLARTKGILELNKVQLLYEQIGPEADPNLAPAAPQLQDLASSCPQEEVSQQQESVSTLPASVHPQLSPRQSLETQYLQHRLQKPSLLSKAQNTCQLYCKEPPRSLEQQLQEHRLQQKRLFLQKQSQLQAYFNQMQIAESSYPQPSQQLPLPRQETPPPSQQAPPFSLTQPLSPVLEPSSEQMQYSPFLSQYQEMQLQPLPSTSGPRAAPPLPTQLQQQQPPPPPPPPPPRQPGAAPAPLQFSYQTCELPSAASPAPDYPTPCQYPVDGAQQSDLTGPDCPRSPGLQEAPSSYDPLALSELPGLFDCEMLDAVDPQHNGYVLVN
T1 sequence (P57059 1-303): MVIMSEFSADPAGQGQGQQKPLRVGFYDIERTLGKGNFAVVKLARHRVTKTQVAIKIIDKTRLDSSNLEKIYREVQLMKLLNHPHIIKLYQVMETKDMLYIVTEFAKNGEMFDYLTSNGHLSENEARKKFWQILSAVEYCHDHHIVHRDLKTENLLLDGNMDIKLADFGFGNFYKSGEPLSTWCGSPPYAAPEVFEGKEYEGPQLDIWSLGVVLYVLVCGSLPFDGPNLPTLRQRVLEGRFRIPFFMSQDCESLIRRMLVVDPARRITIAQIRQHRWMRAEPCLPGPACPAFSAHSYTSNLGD

What is called IC50 is the concentration needed to halve the response being measured. Read a high IC50 as weaker potency. `CN1CC[C@@H](COc2cc(-c3coc4cc(OCCN5CCCC5)ccc34)cc(OC(F)F)c2C(=O)NC2CC2)C1` [Compound 112, (R)—N-cyclopropyl-2-(difluoromethoxy)-6-((1-methylpyrrolidin-3-yl)methoxy)-4-(6-(2-(pyrrolidin-1-yl)ethoxy)benzofuran-3-yl)benzamide]: the IC50 in assay [1] was above 10000 nM; in assay [2] it was 7620 nM; in assay [3], 1300 nM.

For the compound `CN1CCC[C@H]1COc1cc(-c2coc3cc(OCCN4CCCC4)ccc23)cc(OC(F)F)c1C(=O)NC1CC1` [Compound 113, (S)—N-cyclopropyl-2-(difluoromethoxy)-6-((1-methylpyrrolidin-2-yl)methoxy)-4-(6-(2-(pyrrolidin-1-yl)ethoxy)benzofuran-3-yl)benzamide], the IC50 in assay [1] is above 10000 nM; in assay [2] it was above 10000 nM; in assay [3], 7320 nM.

For the compound `CN1CC[C@@H]1COc1cc(-c2coc3cc(OCCN4CCCC4)ccc23)cc(OC(F)F)c1C(=O)NC1CC1` [Compound 114, (R)—N-cyclopropyl-2-(difluoromethoxy)-6-((1-methylazetidin-2-yl)methoxy)-4-(6-(2-(pyrrolidin-1-yl)ethoxy)benzofuran-3-yl)benzamide], the results for the IC50 in assay [1], in assay [2] and in assay [3] were above 10000 nM, 5490 nM and 745 nM, respectively.

For `CN1CC(COc2cc(-c3coc4cc(OCCN5CCCC5)ccc34)cc(OC(F)F)c2C(=O)NC2CC2)C1` [Compound 115, N-cyclopropyl-2-(difluoromethoxy)-6-((1-methylazetidin-3-yl)methoxy)-4-(6-(2-(pyrrolidin-1-yl)ethoxy)benzofuran-3-yl)benzamide], the IC50 in assay [1] was above 10000 nM; in assay [2] it was 4240 nM; in assay [3], 582 nM.

As for `CN1CC[C@H](COc2cc(-c3coc4cc(OCCN5CCCC5)ccc34)cc(OC(F)F)c2C(=O)NC2CC2)C1` [Compound 116, (S)—N-cyclopropyl-2-(difluoromethoxy)-6-((1-methylpyrrolidin-3-yl)methoxy)-4-(6-(2-(pyrrolidin-1-yl)ethoxy)benzofuran-3-yl)benzamide], the IC50 in assay [1] was above 10000 nM; in assay [2], above 10000 nM; in assay [3] it was 1120 nM.

Take `CN1CC[C@H]1COc1cc(-c2coc3cc(OCCN4CCCC4)ccc23)cc(OC(F)F)c1C(=O)NC1CC1` [Compound 117, (S)—N-cyclopropyl-2-(difluoromethoxy)-6-((1-methylazetidin-2-yl)methoxy)-4-(6-(2-(pyrrolidin-1-yl)ethoxy)benzofuran-3-yl)benzamide]: the values for the IC50 in assay [1], in assay [2] and in assay [3] were above 10000 nM, above 10000 nM and 2940 nM, respectively.

For the compound `CN(C)CCOc1cc(-c2coc3cc(OCCN4CCCC4)ccc23)cc(OC(F)F)c1C(=O)NC1CC1` [Compound 118, N-cyclopropyl-2-(difluoromethoxy)-6-(2-(dimethylamino)ethoxy)-4-(6-(2-(pyrrolidin-1-yl)ethoxy)benzofuran-3-yl)benzamide], the IC50 in assay [1] is above 10000 nM; in assay [2], 6310 nM; in assay [3], 781 nM.

As for `CCOc1cc(-c2coc3cc(OCCN4CCCC4)ccc23)cc(OC(F)F)c1C(=O)NC1CC1` [Compound 119, N-cyclopropyl-2-(difluoromethoxy)-6-ethoxy-4-(6-(2-(pyrrolidin-1-yl)ethoxy)benzofuran-3-yl)benzamide], the IC50 came to 7180 nM in assay [1], 452 nM in assay [2] and 136 nM in assay [3].

Consider `CC(C)Oc1cc(-c2coc3cc(OCCN4CCCC4)ccc23)cc(OC(F)F)c1C(=O)NC1CC1` [Compound 120, N-cyclopropyl-2-(difluoromethoxy)-6-isopropoxy-4-(6-(2-(pyrrolidin-1-yl)ethoxy)benzofuran-3-yl)benzamide], for which the IC50 in assay [1] was above 10000 nM; in assay [2], 2540 nM; in assay [3] it was 619 nM.
